The target in assay [1] is T1, DDR2 (Homo sapiens, UniProt Q16832).
T1 sequence (Q16832 22-855): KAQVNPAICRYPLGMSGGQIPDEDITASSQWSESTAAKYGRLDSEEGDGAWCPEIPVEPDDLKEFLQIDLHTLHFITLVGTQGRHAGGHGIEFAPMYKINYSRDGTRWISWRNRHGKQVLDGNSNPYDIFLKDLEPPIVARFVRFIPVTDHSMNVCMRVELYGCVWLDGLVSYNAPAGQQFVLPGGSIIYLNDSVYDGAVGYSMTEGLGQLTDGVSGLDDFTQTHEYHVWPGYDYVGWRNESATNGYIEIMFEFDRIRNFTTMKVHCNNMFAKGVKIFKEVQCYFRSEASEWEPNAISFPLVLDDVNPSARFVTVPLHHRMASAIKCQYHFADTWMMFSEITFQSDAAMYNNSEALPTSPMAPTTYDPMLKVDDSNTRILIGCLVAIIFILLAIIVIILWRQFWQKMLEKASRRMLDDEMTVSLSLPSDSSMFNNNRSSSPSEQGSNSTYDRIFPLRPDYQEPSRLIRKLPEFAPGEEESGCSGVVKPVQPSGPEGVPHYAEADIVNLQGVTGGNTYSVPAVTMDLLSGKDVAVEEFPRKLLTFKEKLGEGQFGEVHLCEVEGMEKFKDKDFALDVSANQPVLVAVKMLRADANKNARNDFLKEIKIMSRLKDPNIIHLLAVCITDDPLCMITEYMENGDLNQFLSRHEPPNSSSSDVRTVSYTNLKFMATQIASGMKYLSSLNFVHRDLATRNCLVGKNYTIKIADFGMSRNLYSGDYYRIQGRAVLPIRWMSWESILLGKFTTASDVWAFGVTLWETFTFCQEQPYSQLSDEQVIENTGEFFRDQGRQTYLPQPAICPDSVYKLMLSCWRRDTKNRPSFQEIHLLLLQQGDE
As to the kind of experiment: DDR2 binding assay (LanthaScreen Europium Kinase Binding assay). More on the design: purchased Life Technologies. As to conditions: binding assay, 5 nM DDR2, 10 nM Kinase Tracer 178; Ki from IC50 by Cheng-Prusoff; read-out: Ki DDR2. In outline:
(§1)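 Compounds incubated 1 h at room temperature with 5 nM kinase, Kinase Tracer 178 (20 nM for DDR1, 10 nM for DDR2) and 2 nM Eu-anti-GST antibody in pH 7.5 HEPES/MgCl2/EGTA/BRIJ35 buffer. TR-FRET 665/615 nm ratio read after 340 nm excitation; IC50 from 4-parameter fit, converted to Ki by Cheng-Prusoff.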
(In general: Time-resolved FRET reads energy transfer from a long-lived donor to a nearby acceptor.)

The target of assay [2] is T2, DDR1 (Homo sapiens, UniProt Q08345). As to the kind of experiment: DDR1 cell based assay (PathHunter U2OS DDR1 assay). The arrangement: host or cells: U2OS-DDR1 (PathHunter). The following applies: U2OS-DDR1 cells, bovine Type II Collagen 20 μg/ml. In a few lines: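 U2OS-DDR1 PathHunter cells preincubated 30 min with compound, then stimulated overnight at 37 °C with 20 μg/ml bovine type II collagen. Luminescent complementation signal read after 1 h detection at room temperature; normalized to vehicle (0%) and collagen-only (100%) controls, IC50 from variable-slope sigmoidal fit.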
T2 sequence (Q08345 19-913): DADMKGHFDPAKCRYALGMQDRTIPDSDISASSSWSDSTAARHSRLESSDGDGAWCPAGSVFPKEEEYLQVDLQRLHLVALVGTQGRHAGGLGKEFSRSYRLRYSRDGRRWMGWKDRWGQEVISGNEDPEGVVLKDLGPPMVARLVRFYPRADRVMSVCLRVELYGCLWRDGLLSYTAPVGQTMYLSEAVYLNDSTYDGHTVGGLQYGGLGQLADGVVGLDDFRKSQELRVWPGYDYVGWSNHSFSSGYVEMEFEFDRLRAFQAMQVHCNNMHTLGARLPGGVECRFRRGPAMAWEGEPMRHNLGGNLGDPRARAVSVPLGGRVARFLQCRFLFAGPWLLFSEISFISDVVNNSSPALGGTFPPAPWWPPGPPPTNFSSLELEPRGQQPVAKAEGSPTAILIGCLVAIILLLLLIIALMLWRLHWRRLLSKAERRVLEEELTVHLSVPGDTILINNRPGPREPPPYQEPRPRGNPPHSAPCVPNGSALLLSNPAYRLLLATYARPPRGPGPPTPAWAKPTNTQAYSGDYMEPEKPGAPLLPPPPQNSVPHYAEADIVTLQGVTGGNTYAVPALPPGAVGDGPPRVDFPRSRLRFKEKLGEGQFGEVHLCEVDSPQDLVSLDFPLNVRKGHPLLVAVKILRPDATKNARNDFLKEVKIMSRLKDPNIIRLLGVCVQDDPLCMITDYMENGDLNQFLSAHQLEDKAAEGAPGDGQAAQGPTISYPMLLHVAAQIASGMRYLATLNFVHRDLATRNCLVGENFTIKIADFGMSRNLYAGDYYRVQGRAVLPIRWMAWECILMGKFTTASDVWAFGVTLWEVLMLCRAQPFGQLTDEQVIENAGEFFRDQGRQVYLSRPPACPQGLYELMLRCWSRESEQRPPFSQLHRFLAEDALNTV

Assay [3] has as its target T2, DDR1. Description: DDR1 binding assay (LanthaScreen Europium Kinase Binding assay). More on the design: purchased Carna Biosciences. As to conditions: binding assay, 5 nM DDR1, 20 nM Kinase Tracer 178; Ki from IC50 by Cheng-Prusoff; read-out: Ki DDR1. In a few lines: as §1
In assay [4] the target is T1, DDR2. As to the kind of experiment: DDR2 cell based assay (phospho-ELISA in HEK293T-DDR2 recombinant cells). The following applies: bovine Type II Collagen 50 μg/ml. More on the design: expressed in transfected cells; host or cells: HEK293T-DDR2 recombinant cells. As for the experimental part:
The inhibition of DDR2 phosphorylation by compounds was evaluated in HEK293T-DDR2 recombinant cells by phospho-ELISA assay. Briefly, HEK293T-DDR2 cells were seeded in poly-D-lysine-coated 24-well plates at a density of 250.000 cells/well and incubated for 1.5 hours at 37° C. and 5% CO2 in DMEM+10% FBS. After that, the medium was changed to serum-free DMEM and cells were incubated for 3 hours. Then. test compounds were added at different concentrations 30 minutes before stimulation with bovine Type II Collagen at 50 μg/ml for further 3 hours. For DDR2 phospho-ELISA assay (DuoSet IC Human Phospho-DDR2; R&D Systems), protein extracts were obtained by adding 60 μl/well of lysis buffer prepared according to the manufacturer's instructions. Protein concentration in the samples was determined by BCA assay and the levels of phospho-DDR2 were determined following R&D Systems indications. Raw data were normalized to maximal inhibition control (0% for normalization) and positive control (100% for normalization; cells treated with […] collagen II) and IC50 parameters were calculated in GraphPad Prism 8.0 software, using sigmoidal dose-response curve fitting with variable slope.
(In an ELISA, binding on a coated surface is turned into a signal by an enzyme label.)

For orientation: Ki means a measure of affinity in units of concentration, obtained from inhibition or displacement. By IC50 is commonly meant the midpoint of a concentration-inhibition curve. As to `O=C(Nc1ccc(OC2CCOC2)c(C(F)(F)F)c1)c1csc2c1CCN(C(=O)c1cnc3ccccn13)C2` (centres unmarked) [Example 12, 6-(imidazo[1,2-a]pyridine-3-carbonyl)-N-(4-((tetrahydrofuran-3-yl)oxy)-3-(trifluoromethyl)phenyl)-4,5,6,7-tetrahydrothieno[2,3-c]pyridine-3-carboxamide], the Ki at DDR2 [1] and on DDR1 [3] was less than 25 nM each time. The IC50 on DDR1 [2] and on DDR2 [4] was less than 25 nM each time.
Regarding `Cc1cn(-c2cc(NC(=O)c3csc4c3CCN(C(=O)c3cnc5ccccn35)C4)cc(C(F)(F)F)c2)cn1` [Example 74, 6-(imidazo[1,2-a]pyridine-3-carbonyl)-N-(3-(4-methyl-1H-imidazol-1-yl)-5-(trifluoromethyl)phenyl)-4,5,6,7-tetrahydrothieno[2,3-c]pyridine-3-carboxamide], the Ki at DDR2 [1] and at DDR1 [3] was less than 25 nM in each case. The IC50 on DDR1 [2] and on DDR2 [4] was less than 25 nM in each case.
In the case of `O=C(Nc1cncc(C(F)(F)F)c1)c1csc2c1CCN(C(=O)c1cnn3ccncc13)C2` [Example 108, 6-(pyrazolo[1,5-a]pyrazine-3-carbonyl)-N-(5-(trifluoromethyl)pyridin-3-yl)-4,5,6,7-tetrahydrothieno[2,3-c]pyridine-3-carboxamide], the inhibition constant Ki at DDR2 [1] and on DDR1 [3] was less than 25 nM in each case. Moreover, the IC50 is less than 25 nM against DDR1 [2] and 25 to 50 nM on DDR2 [4].
Regarding `O=C(Nc1cncc(C(F)(F)F)c1)c1csc2c1CCN(Cc1cnc3cnccn13)C2` [Example 153, 6-(imidazo[1,2-a]pyrazin-3-ylmethyl)-N-(5-(trifluoromethyl)pyridin-3-yl)-4,5,6,7-tetrahydrothieno[2,3-c]pyridine-3-carboxamide], the Ki on DDR2 [1] and at DDR1 [3] was less than 25 nM throughout. Also, the IC50 against DDR1 [2] and on DDR2 [4] was less than 25 nM each time.
Turning to `N#Cc1cc(NC(=O)c2csc3c2CCN(C(=O)c2cnn4ccncc24)C3)cc(C(F)(F)F)c1` [Example 184, N-(3-cyano-5-(trifluoromethyl)phenyl)-6-(pyrazolo[1,5-a]pyrazine-3-carbonyl)-4,5,6,7-tetrahydrothieno[2,3-c]pyridine-3-carboxamide], the Ki at DDR2 [1] and at DDR1 [3] was less than 25 nM in each case. The IC50 is less than 25 nM at DDR1 [2] and 25 to 50 nM on DDR2 [4].
Take `O=C(Nc1cc(F)cc(C(F)(F)F)c1)c1csc2c1CCN(C(=O)c1cnc3ccccn13)C2` [Example 46, N-(3-fluoro-5-(trifluoromethyl)phenyl)-6-(imidazo[1,2-a]pyridine-3-carbonyl)-4,5,6,7-tetrahydrothieno[2,3-c]pyridine-3-carboxamide]: the Ki on DDR2 [1] and at DDR1 [3] was less than 25 nM in each case. Besides, the IC50 against DDR1 [2] and on DDR2 [4] was less than 25 nM each time.
As for `O=C(Nc1ccc(CN2CCOCC2)c(C(F)(F)F)c1)c1csc2c1CCN(C(=O)c1cnc3ccccn13)C2` [Example 23, 6-(imidazo[1,2-a]pyridine-3-carbonyl)-N-(4-(morpholinomethyl)-3-(trifluoromethyl)phenyl)-4,5,6,7-tetrahydrothieno[2,3-c]pyridine-3-carboxamide], the Ki on DDR2 [1] and at DDR1 [3] was less than 25 nM in each case. The results for the IC50 against DDR1 [2] and at DDR2 [4] were less than 25 nM and 25 to 50 nM, respectively.
Regarding `O=C(Nc1cccc(C(F)(F)F)c1)c1csc2c1CCN(C(=O)c1cnn3ccncc13)C2` [Example 93, 6-(pyrazolo[1,5-a]pyrazine-3-carbonyl)-N-(3-(trifluoromethyl)phenyl)-4,5,6,7-tetrahydrothieno[2,3-c]pyridine-3-carboxamide], the Ki on DDR2 [1] and at DDR1 [3] was less than 25 nM throughout. For the same molecule, the IC50 against DDR1 [2] and on DDR2 [4] was less than 25 nM each time.
Turning to `CC(C)(C)c1cc(NC(=O)c2csc3c2CCN(Cc2cnc4[nH]ncc4c2)C3)on1` [Example 133, 6-((1H-pyrazolo[3,4-b]pyridin-5-yl)methyl)-N-(3-(tert-butyl)isoxazol-5-yl)-4,5,6,7-tetrahydrothieno[2,3-c]pyridine-3-carboxamide], the inhibition constant (Ki) at DDR2 [1] and on DDR1 [3] was less than 25 nM each time. Also, the IC50 against DDR1 [2] and on DDR2 [4] was less than 25 nM throughout.
For the molecule `CN(C)[C@@H]1CCN(Cc2cc(NC(=O)c3csc4c3CCN(Cc3cnc5[nH]ncc5c3)C4)cc(C(F)(F)F)c2)C1` [Example 158, (R)-6-((1H-pyrazolo[3,4-b]pyridin-5-yl)methyl)-N-(3-((3-(dimethylamino)pyrrolidin-1-yl)methyl)-5-(trifluoromethyl)phenyl)-4,5,6,7-tetrahydrothieno[2,3-c]pyridine-3-carboxamide], the Ki at DDR2 [1] and at DDR1 [3] was less than 25 nM throughout. Moreover, the IC50 is less than 25 nM on DDR1 [2] and 25 to 50 nM at DDR2 [4].
As to `O=C(Nc1cc(F)cc(C(F)(F)F)c1)c1csc2c1CCN(Cc1cnc3[nH]ncc3c1)C2` [Example 67, 6-((1H-pyrazolo[3,4-b]pyridin-5-yl)methyl)-N-(3-fluoro-5-(trifluoromethyl)phenyl)-4,5,6,7-tetrahydrothieno[2,3-c]pyridine-3-carboxamide], the Ki at DDR2 [1] and on DDR1 [3] was less than 25 nM in each case. Further, the IC50 was less than 25 nM at DDR1 [2] and 25 to 50 nM on DDR2 [4].
As to `Cn1nc(C(C)(C)C)cc1NC(=O)c1csc2c1CCN(Cc1cnc3[nH]ccc3c1)C2` [Example 70, 6-((1H-pyrrolo[2,3-b]pyridin-5-yl)methyl)-N-(3-(tert-butyl)-1-methyl-1H-pyrazol-5-yl)-4,5,6,7-tetrahydrothieno[2,3-c]pyridine-3-carboxamide], the inhibitory constant (Ki) on DDR2 [1] and at DDR1 [3] was less than 25 nM throughout. Also, the IC50 against DDR1 [2] is less than 25 nM; at DDR2 [4] it was 25 to 50 nM.
As for `O=C(Nc1cccc(OC(F)(F)F)c1)c1csc2c1CCN(Cc1cnc3[nH]ccc3c1)C2` [Example 72, 6-((1H-pyrrolo[2,3-b]pyridin-5-yl)methyl)-N-(3-(trifluoromethoxy)phenyl)-4,5,6,7-tetrahydrothieno[2,3-c]pyridine-3-carboxamide], the Ki on DDR2 [1] and at DDR1 [3] was less than 25 nM throughout. In addition, the IC50 against DDR1 [2] and at DDR2 [4] was less than 25 nM throughout.
For `CC1c2scc(C(=O)Nc3cccc(C(F)(F)F)c3)c2CCN1Cc1cnc2cnccn12` (centres unmarked) [Example 103, 6-(imidazo[1,2-a]pyrazin-3-ylmethyl)-7-methyl-N-(3-(trifluoromethyl)phenyl)-4,5,6,7-tetrahydrothieno[2,3-c]pyridine-3-carboxamide], the Ki on DDR2 [1] and at DDR1 [3] was less than 25 nM in each case. For the same molecule, the IC50 is less than 25 nM against DDR1 [2] and 25 to 50 nM at DDR2 [4].
